In PubChem BioAssay AID2060908 (Molecular Pharmacology Branch, DTP, NCI, 2025):

System: 186277-243-T-J2-PDC complex spheroids, viability
Assay: Anticancer human tumor 186277-243-T-J2-PDC patient-derived colon adenocarcinoma cell line growth inhibition [RAS]
Settings: for IC50: curve of first compound; for viability, T/C: stronger effect = lower value
From the text: RAS pathway inhibitors in Combinations in Complex Spheroids
A high-throughput screen of multi-cell type tumor spheroids was designed to identify active combinations of RAS pathway inhibitors and targeted small molecules. Complex spheroids include a stromal component modeled by human endothelial cells (HUVEC) and fibroblasts modeled by human mesenchymal stem cells (MSCs). The concentration ranges selected for each drug and investigational agent were based upon clinically achievable concentrations if the clinical Cmax of the agent was known.
Compounds. The drugs and investigational agents: abemaciclib (NSC768073), cobimetinib (NSC768068), divarasib (GDC6063, NSC841802), docetaxel (NSC628503), GDC-1971 (RLY-1971, NSC841576), gemcitabine (NSC613327), inavolisib (NSC800729), ipatasertib (NSC767898), KB-0742 (NSC834161), MRTX-1133 (NSC836407), osimertinib (NSC779217), RMC-4630 (NSC839698), RMC-6236 (NSC851965), RMC-6291 (NSC852671), Ro-3306 (NSC812927), sapanisertib (NSC764658), SN-38 (NSC673596), staurosporine (NSC755774), SY5609 (NSC837396), and tovorafenib (DAY101, NSC766906), were obtained from the National Cancer Institute (NCI) Developmental Therapeutics Program Chemical Repository. The FDA-approved anticancer drug set is available from the NCI Developmental Therapeutics Program. […] The stock solutions were prepared in dimethyl sulfoxide (DMSO, Sigma-Aldrich, St. Louis, MO, cat. D2650) at 800-fold the tested concentration and stored at -70 degrees C prior to their use. All drugs and investigational agents were tested over a range starting from a high concentration at or near the clinical Cmax and decreasing in half-log increments. If the clinical Cmax for an agent had not been determined, the highest concentration tested was 10 microM.
Cell Culture. All cells were maintained in an incubator at 37 degrees C and 5% CO2 with 95% humidity. The PDC lines were cultured according to standard operating procedures established by the NCI PDMR. All PDCs were thawed and cultured in Matrigel-coated flasks prepared with a working solution of 1X Ham's F-12 nutrient mix, without supplementation (Invitrogen, Waltham, MA, cat. 11765054), 100 U/mL penicillin-streptomycin (Invitrogen, cat. 15140122), and 2.5% Matrigel (Corning Inc., Corning, NY, cat. 354248) for the first three passages. The 362531-283-R-J2-PDC and 782815-120-R-J1-PDC lines were cultured in 6C/Colon 1B media, which includes advanced DMEM/F-12 (Thermo Fisher Scientific, cat. 12634028), 10 mM HEPES (Thermo Fisher Scientific, cat. 15630080), 1X GlutaMAX supplement (Thermo Fisher Scientific, cat. 35050061), 0.1 mg/mL primocin (InvivoGen, San Diego, CA, cat. ant-pm-2), 10% defined fetal bovine serum, heat inactivated (HyClone Laboratories Inc., Logan, UT, cat. SH30070.03HI), 50% L-WRN conditioned media (ATCC, cat. CRL-3276), 1.25 mM N-Acetyl-L-cysteine (Sigma-Aldrich, cat. A9165), 10 mM nicotinamide (Sigma-Aldrich, cat. N0636), 1X B-27 supplement (Thermo Fisher Scientific, cat. 17504044), 1X N-2 supplement (Thermo Fisher Scientific, cat. 17502048), 50 ng/mL human EGF (Thermo Fisher Scientific, cat. PHG0311), and 10 microM Y-27632 dihydrochloride (Tocris Bioscience, cat. 1254). The K12877-001-R-J1-PDC line was cultured in 6I media, which includes all 6C/Colon 1B media plus 10 ng/mL human FGF-10 (PeproTech, cat. 100-26), 1 ng/mL human FGF-2 (PeproTech, cat. 100-18B), 1 µM prostaglandin E2 (Tocris Bioscience, cat. 2296), […] hydrocortisone (Sigma-Aldrich, cat. H4001), and […] bovine insulin (Sigma-Aldrich, cat. I6634). The K86415-001-R-J1-PDC line was cultured in 6D media, which includes all 6C/Colon 1B media components minus the L-WRN conditioned media. The 485176-168-R4-J1-PDC was cultured in PANC media, which includes all 6C/Colon 1B media plus 100 ng/mL human FGF-10 (PeproTech, cat. 100-26), 500 nM SB-431542 (Selleckchem, cat. S1067), and 10 nM gastrin (Tocris Bioscience, cat. 3006). […]

[1] = second compound 0.0316 µM, first compound 0.0316 µM
[2] = second compound 0.0316 µM, first compound 0.1 µM
[3] = second compound 0.0316 µM, first compound 0.316 µM
[4] = second compound 0.0316 µM, first compound 1 µM
[5] = second compound 0.0316 µM, first compound 3.16 µM
[6] = second compound 0.0316 µM, first compound 10 µM
[7] = second compound 0.1 µM, first compound 0.0316 µM
[8] = second compound 0.1 µM, first compound 0.1 µM
[9] = second compound 0.1 µM, first compound 0.316 µM
[10] = second compound 0.1 µM, first compound 1 µM
[11] = second compound 0.1 µM, first compound 3.16 µM
[12] = second compound 0.1 µM, first compound 10 µM
[13] = second compound 0.316 µM, first compound 0.0316 µM
[14] = second compound 0.316 µM, first compound 0.1 µM
[15] = second compound 0.316 µM, first compound 0.316 µM
[16] = second compound 0.316 µM, first compound 1 µM
[17] = second compound 0.316 µM, first compound 3.16 µM
[18] = second compound 0.316 µM, first compound 10 µM
[19] = second compound 1 µM, first compound 0.0316 µM
[20] = second compound 1 µM, first compound 0.1 µM
[21] = second compound 1 µM, first compound 0.316 µM
[22] = second compound 1 µM, first compound 1 µM
[23] = second compound 1 µM, first compound 3.16 µM
[24] = second compound 1 µM, first compound 10 µM
[25] = second compound 3.16 µM, first compound 0.0316 µM
[26] = second compound 3.16 µM, first compound 0.1 µM
[27] = second compound 3.16 µM, first compound 0.316 µM
[28] = second compound 3.16 µM, first compound 1 µM
[29] = second compound 3.16 µM, first compound 3.16 µM
[30] = second compound 3.16 µM, first compound 10 µM
[31] = second compound 10 µM, first compound 0.0316 µM
[32] = second compound 10 µM, first compound 0.1 µM
[33] = second compound 10 µM, first compound 0.316 µM
[34] = second compound 10 µM, first compound 1 µM
[35] = second compound 10 µM, first compound 3.16 µM
[36] = second compound 10 µM, first compound 10 µM
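Note: spheroids exposed to compounds for 7 days before viability read.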

What does the source list for Cc1nc(N2CCC3(CC2)COC(C)C3N)c(CO)nc1Sc1ccnc(N)c1Cl (stereo unspecified) + C#Cc1c(F)ccc2cc(O)cc(-c3ncc4c(N5CC6CCC(C5)N6)nc(OCC56CCCN5CC(F)C6)nc4c3F)c12?
IC50 (second compound 0.0316 µM): 114 nM; IC50 (second compound 0.1 µM): < 31.6 nM; IC50 (second compound 0.316 µM): < 31.6 nM; IC50 (second compound 1 µM): < 31.6 nM; IC50 (second compound 3.16 µM): < 31.6 nM; IC50 (second compound 10 µM): < 31.6 nM; viability, T/C [1]: 60.5%; viability, T/C [2]: 53.8%; viability, T/C [3]: 23.1%; viability, T/C [4]: 9.38%; viability, T/C [5]: 7.2%; viability, T/C [6]: 5.04%; viability, T/C [7]: 43.9%; viability, T/C [8]: 24.9%; viability, T/C [9]: 9.87%; viability, T/C [10]: 9.03%; viability, T/C [11]: 6.97%; viability, T/C [12]: 6.34%; viability, T/C [13]: 14.7%; viability, T/C [14]: 13.1%; viability, T/C [15]: 9.91%; viability, T/C [16]: 8%; viability, T/C [17]: 6.18%; viability, T/C [18]: 5.92%; viability, T/C [19]: 12.2%; viability, T/C [20]: 10.3%; viability, T/C [21]: 8.18%; viability, T/C [22]: 5.06%; viability, T/C [23]: 6.45%; viability, T/C [24]: 4.66%; viability, T/C [25]: 8.78%; viability, T/C [26]: 9.76%; viability, T/C [27]: 7.42%; viability, T/C [28]: 6.36%; viability, T/C [29]: 5.23%; viability, T/C [30]: 4.36%; viability, T/C [31]: 7.27%; viability, T/C [32]: 4.82%; viability, T/C [33]: 6.12%; viability, T/C [34]: 4.54%; viability, T/C [35]: 4.2%; viability, T/C [36]: 1.83%

Which results are given for NC1c2ccccc2OC12CCN(c1cnc3c(N4CCCc5ncccc54)n[nH]c3n1)CC2 (stereo unspecified) + C#Cc1c(F)ccc2cc(O)cc(-c3ncc4c(N5CC6CCC(C5)N6)nc(OCC56CCCN5CC(F)C6)nc4c3F)c12?
IC50 (second compound 0.0316 µM): < 31.6 nM; IC50 (second compound 0.1 µM): < 31.6 nM; IC50 (second compound 0.316 µM): < 31.6 nM; IC50 (second compound 1 µM): < 31.6 nM; IC50 (second compound 3.16 µM): < 31.6 nM; IC50 (second compound 10 µM): < 31.6 nM; viability, T/C [1]: 39.1%; viability, T/C [2]: 14.9%; viability, T/C [3]: 8.55%; viability, T/C [4]: 7.47%; viability, T/C [5]: 5.16%; viability, T/C [6]: 3.58%; viability, T/C [7]: 14.2%; viability, T/C [8]: 9.2%; viability, T/C [9]: 7.59%; viability, T/C [10]: 7.67%; viability, T/C [11]: 5.13%; viability, T/C [12]: 3.21%; viability, T/C [13]: 10.8%; viability, T/C [14]: 8.96%; viability, T/C [15]: 7.32%; viability, T/C [16]: 7.04%; viability, T/C [17]: 5.5%; viability, T/C [18]: 3.89%; viability, T/C [19]: 9.12%; viability, T/C [20]: 7.57%; viability, T/C [21]: 7.39%; viability, T/C [22]: 5.61%; viability, T/C [23]: 4.48%; viability, T/C [24]: 3.29%; viability, T/C [25]: 8.98%; viability, T/C [26]: 6.65%; viability, T/C [27]: 5.07%; viability, T/C [28]: 4.41%; viability, T/C [29]: 5.32%; viability, T/C [30]: 2.82%; viability, T/C [31]: 6.21%; viability, T/C [32]: 5.08%; viability, T/C [33]: 3.47%; viability, T/C [34]: 2.88%; viability, T/C [35]: 1.6%; viability, T/C [36]: 0.47%

Which results are given for Nc1ccn(C2OC(CO)C(O)C2(F)F)c(=O)n1 (stereo unspecified) + C#Cc1c(F)ccc2cc(O)cc(-c3ncc4c(N5CC6CCC(C5)N6)nc(OCC56CCCN5CC(F)C6)nc4c3F)c12?
IC50 (second compound 0.0316 µM): < 3.16 nM; IC50 (second compound 0.1 µM): < 3.16 nM; IC50 (second compound 0.316 µM): < 3.16 nM; IC50 (second compound 1 µM): < 3.16 nM; IC50 (second compound 3.16 µM): < 3.16 nM; IC50 (second compound 10 µM): < 3.16 nM; viability, T/C (second compound 0.0316 µM, first compound 0.00316 µM): 47%; viability, T/C (second compound 0.0316 µM, first compound 0.01 µM): 8.41%; viability, T/C [1]: 7.36%; viability, T/C [2]: 8.79%; viability, T/C [3]: 6.46%; viability, T/C [4]: 8.3%; viability, T/C (second compound 0.1 µM, first compound 0.00316 µM): 28.4%; viability, T/C (second compound 0.1 µM, first compound 0.01 µM): 8.66%; viability, T/C [7]: 8.73%; viability, T/C [8]: 6.07%; viability, T/C [9]: 7.33%; viability, T/C [10]: 7.04%; viability, T/C (second compound 0.316 µM, first compound 0.00316 µM): 14.2%; viability, T/C (second compound 0.316 µM, first compound 0.01 µM): 8.55%; viability, T/C [13]: 7.4%; viability, T/C [14]: 7.69%; viability, T/C [15]: 5.4%; viability, T/C [16]: 7.34%; viability, T/C (second compound 1 µM, first compound 0.00316 µM): 9.92%; viability, T/C (second compound 1 µM, first compound 0.01 µM): 7.97%; viability, T/C [19]: 7.96%; viability, T/C [20]: 6.96%; viability, T/C [21]: 7.3%; viability, T/C [22]: 5.65%; viability, T/C (second compound 3.16 µM, first compound 0.00316 µM): 7.24%; viability, T/C (second compound 3.16 µM, first compound 0.01 µM): 6.5%; viability, T/C [25]: 6.06%; viability, T/C [26]: 5.7%; viability, T/C [27]: 4.35%; viability, T/C [28]: 5.91%; viability, T/C (second compound 10 µM, first compound 0.00316 µM): 8.28%; viability, T/C (second compound 10 µM, first compound 0.01 µM): 7.76%; viability, T/C [31]: 5.58%; viability, T/C [32]: 5.8%; viability, T/C [33]: 5.91%; viability, T/C [34]: 6.36%
